{"source": "ChEMBL document CHEMBL4814073", "about": "“Ring-opening of five-membered heterocycles conjugated 4-isopropylresorcinol scaffold-based benzamides as HSP90 inhibitors suppressing tumor growth in vitro and in vivo” (Eur J Med Chem, 2021)", "key": {"A549": {"system": "A549", "test": "Antiproliferative activity against human A549 cells assessed as growth inhibition incubated for 48 hrs by Sulforhodamine B assay", "format": "functional"}, "[1]": {"test": "Apparent permeability across basolateral to apical in human Caco2 cells by LC-MS/MS analysis", "format": "ADME, cell-based", "details": "Caco-2"}, "in vitro": {"test": "in vitro", "details": "human, HUVEC cells versus A549 cells", "description": "Therapeutic index, ratio of IC50 for HUVEC cells to IC50 for human A549 cells"}, "MDA-MB-231": {"system": "MDA-MB-231", "test": "Antiproliferative activity against human MDA-MB-231 cells assessed as growth inhibition incubated for 48 hrs by Sulforhodamine B assay", "format": "functional"}, "HCT-116": {"system": "HCT-116", "test": "Antiproliferative activity against human HCT116 cells assessed as growth inhibition incubated for 48 hrs by Sulforhodamine B assay", "format": "functional"}, "Heat shock protein HSP90": {"biological_target": "Heat shock protein HSP90 (Homo sapiens, UniProt P07900+P08238)", "test": "Inhibition of HSP90 (unknown origin) assessed as competition of fluorescently labelled geldanamycin binding after 2 hrs by microplate reader analysis", "format": "protein assay"}, "[2]": {"test": "Antiproliferative activity against human HUVEC cells assessed as growth inhibition incubated for 48 hrs by Sulforhodamine B assay", "format": "cell-based"}, "Hep 3B2": {"system": "Hep 3B2", "test": "Antiproliferative activity against human Hep3B cells assessed as growth inhibition incubated for 48 hrs by Sulforhodamine B assay", "format": "functional"}, "661W": {"system": "661W", "test": "Cytotoxicity against mouse 661W cells by MTT based vision related toxicity assay", "format": "cell-based"}}}
{"smiles": "CCN(C(=O)c1cc(C(C)C)c(O)cc1O)c1ccc2c(ccn2C)c1", "values": [{"measurement": "GI50", "setting": "A549", "value": 80, "unit": "nM"}]}
{"smiles": "CCCN(C(=O)c1cc(C(C)C)c(O)cc1O)c1cccnc1", "values": [{"measurement": "GI50", "setting": "A549", "value": 390, "unit": "nM"}]}
{"smiles": "CC(C)c1cc(C(=O)N(c2ccc3[nH]ccc3c2)C(C)C)c(O)cc1O", "values": [{"measurement": "GI50", "setting": "A549", "value": 210, "unit": "nM"}]}
{"smiles": "COC(=O)c1ccccc1-c1c2ccc(=N)cc-2oc2cc(N)ccc12.Cl", "note": "[RHODAMINE123]", "values": [{"measurement": "permeability", "setting": "[1]", "value": "8.04 10^-6 cm/s"}]}
{"smiles": "CC(C)c1cc(C(=O)N(C)c2ccc3c(ccn3C)c2)c(O)cc1O", "values": [{"measurement": "selectivity ratio", "setting": "in vitro", "value": 2.9}, {"measurement": "GI50", "setting": "MDA-MB-231", "value": 100, "unit": "nM"}, {"measurement": "GI50", "setting": "A549", "value": 280, "unit": "nM"}, {"measurement": "GI50", "setting": "HCT-116", "value": 700, "unit": "nM"}, {"measurement": "IC50", "setting": "Heat shock protein HSP90", "value": 106, "unit": "nM"}, {"measurement": "GI50 at 48 h", "setting": "[2]", "value": 820, "unit": "nM"}, {"measurement": "GI50", "setting": "Hep 3B2", "value": 570, "unit": "nM"}]}
{"smiles": "CC(C)c1cc(C(=O)N(C)c2ccc3[nH]ccc3c2)c(O)cc1O", "values": [{"measurement": "selectivity ratio", "setting": "in vitro", "value": 3.4}, {"measurement": "GI50", "setting": "MDA-MB-231", "value": 70, "unit": "nM"}, {"measurement": "GI50", "setting": "A549", "value": 170, "unit": "nM"}, {"measurement": "GI50", "setting": "HCT-116", "value": 1000, "unit": "nM"}, {"measurement": "IC50", "setting": "Heat shock protein HSP90", "value": 115, "unit": "nM"}, {"measurement": "GI50 at 48 h", "setting": "[2]", "value": 570, "unit": "nM"}, {"measurement": "GI50", "setting": "Hep 3B2", "value": 180, "unit": "nM"}]}
{"smiles": "CC(C)c1cc(C(=O)Nc2ccncc2)c(O)cc1O", "values": [{"measurement": "GI50", "setting": "A549", "value": "> 10000", "unit": "nM"}]}
{"smiles": "CCCN(C(=O)c1cc(C(C)C)c(O)cc1O)c1ccncc1", "values": [{"measurement": "GI50", "setting": "A549", "value": 370, "unit": "nM"}]}
{"smiles": "CCCN(C(=O)c1cc(C(C)C)c(O)cc1O)c1ccc2c(ccn2C)c1", "values": [{"measurement": "GI50", "setting": "A549", "value": 300, "unit": "nM"}]}
{"smiles": "CC(C)c1cc(C(=O)N(c2cccnc2)C(C)C)c(O)cc1O", "values": [{"measurement": "GI50", "setting": "A549", "value": 260, "unit": "nM"}]}
{"smiles": "CC(C)c1cc(-c2n[nH]c(=O)n2-c2ccc3c(ccn3C)c2)c(O)cc1O", "note": "[GANETESPIB]", "values": [{"measurement": "Activity", "setting": "661W", "value": "> 10", "unit": "µM"}]}
{"smiles": "CCCN(C(=O)c1cc(C(C)C)c(O)cc1O)c1ccc2[nH]ccc2c1", "values": [{"measurement": "GI50", "setting": "A549", "value": 140, "unit": "nM"}]}
{"smiles": "CCNC(=O)c1noc(-c2cc(C(C)C)c(O)cc2O)c1-c1ccc(CN2CCOCC2)cc1", "note": "[LUMINESPIB]", "values": [{"measurement": "Activity", "setting": "661W", "value": 0.04, "unit": "µM"}]}
{"smiles": "COC1=C2C[C@@H](C)C[C@H](OC)[C@H](O)[C@@H](C)/C=C(\\C)[C@H](OC(N)=O)[C@@H](OC)/C=C\\C=C(/C)C(=O)NC(=CC1=O)C2=O", "note": "[GELDANAMYCIN]", "values": [{"measurement": "Activity", "setting": "661W", "value": 1.65, "unit": "µM"}]}
{"smiles": "CC(C)c1cc(C(=O)Nc2ccc3[nH]ccc3c2)c(O)cc1O", "values": [{"measurement": "GI50", "setting": "A549", "value": "> 10000", "unit": "nM"}]}
{"smiles": "COc1c(C)cnc(Cn2cnc3c(Cl)nc(N)nc32)c1C", "note": "[BIIB021]", "values": [{"measurement": "GI50", "setting": "MDA-MB-231", "value": 240, "unit": "nM"}, {"measurement": "GI50 at 48 h", "setting": "[2]", "value": 1420, "unit": "nM"}, {"measurement": "GI50", "setting": "Hep 3B2", "value": 240, "unit": "nM"}, {"measurement": "Activity", "setting": "661W", "value": "> 10", "unit": "µM"}]}
{"smiles": "CC(C)c1cc(C(=O)Nc2ccc3c(ccn3C)c2)c(O)cc1O", "values": [{"measurement": "GI50", "setting": "A549", "value": "> 10000", "unit": "nM"}]}
{"smiles": "C=CCNC1=C2C[C@@H](C)C[C@H](OC)[C@H](O)[C@@H](C)/C=C(\\C)[C@H](OC(N)=O)[C@@H](OC)/C=C\\C=C(/C)C(=O)NC(=CC1=O)C2=O", "note": "[TANESPIMYCIN]", "values": [{"measurement": "GI50", "setting": "MDA-MB-231", "value": 270, "unit": "nM"}, {"measurement": "GI50", "setting": "A549", "value": 80, "unit": "nM"}, {"measurement": "GI50", "setting": "HCT-116", "value": 340, "unit": "nM"}, {"measurement": "GI50 at 48 h", "setting": "[2]", "value": "< 100", "unit": "nM"}, {"measurement": "GI50", "setting": "Hep 3B2", "value": 80, "unit": "nM"}, {"measurement": "Activity", "setting": "661W", "value": "> 10", "unit": "µM"}]}
{"smiles": "CC(C)c1cc(C(=O)N(c2ccncc2)C(C)C)c(O)cc1O", "values": [{"measurement": "GI50", "setting": "A549", "value": 190, "unit": "nM"}]}
{"smiles": "CCN(C(=O)c1cc(C(C)C)c(O)cc1O)c1ccncc1", "values": [{"measurement": "selectivity ratio", "setting": "in vitro", "value": 0.8}, {"measurement": "GI50", "setting": "MDA-MB-231", "value": 80, "unit": "nM"}, {"measurement": "GI50", "setting": "A549", "value": 120, "unit": "nM"}, {"measurement": "GI50", "setting": "HCT-116", "value": 640, "unit": "nM"}, {"measurement": "IC50", "setting": "Heat shock protein HSP90", "value": 109, "unit": "nM"}, {"measurement": "GI50 at 48 h", "setting": "[2]", "value": "< 100", "unit": "nM"}, {"measurement": "GI50", "setting": "Hep 3B2", "value": 100, "unit": "nM"}]}
{"smiles": "CCN(C(=O)c1cc(C(C)C)c(O)cc1O)c1ccc2[nH]ccc2c1", "values": [{"measurement": "selectivity ratio", "setting": "in vitro", "value": 0.9}, {"measurement": "GI50", "setting": "MDA-MB-231", "value": 80, "unit": "nM"}, {"measurement": "GI50", "setting": "A549", "value": 110, "unit": "nM"}, {"measurement": "GI50", "setting": "HCT-116", "value": 370, "unit": "nM"}, {"measurement": "IC50", "setting": "Heat shock protein HSP90", "value": 117, "unit": "nM"}, {"measurement": "GI50 at 48 h", "setting": "[2]", "value": "< 100", "unit": "nM"}, {"measurement": "GI50", "setting": "Hep 3B2", "value": 110, "unit": "nM"}]}
{"smiles": "CC(C)c1cc(C(=O)Nc2cccnc2)c(O)cc1O", "values": [{"measurement": "GI50", "setting": "A549", "value": "> 10000", "unit": "nM"}]}
